Our source for the EC50 values is patent publication US11117905B2, “Bisaryl heterocycles as NRF2 activators” (GLAXOSMITHKLINE INTELLECTUAL PROPERTY DEVELOPMENT LIMITED, priority 2016, dated 2021).

By EC50 is commonly meant the concentration at which the effect is half-maximal.

The first test concerns NQO1 specific enzyme activity in BEAS-2B cells (marker for NRF2 activation). In words: BEAS-2B NQO1 MTT Assay. It counts as cell-based. As to conditions: Homo sapiens, BEAS-2B, 48 h, NQO1 specific activity induction, 48 hours with compound. An excerpt:
NAD(P)H:quinone oxidoreductase 1 (NQO1), also called DT diaphorase, is a homodimeric FAD-containing enzyme that catalyzes obligatory NAD(P)H-dependent two-electron reductions of quinones and protects cells against the toxic and neoplastic effects of free radicals and reactive oxygen species arising from one-electron reductions. The transcription of NQO1 is finely regulated by NRF2, and thus NQO1 activity is a good marker for NRF2 activation. On day one, frozen BEAS-2B cells (ATCC) were thawed in a water bath, counted, and re-suspended at a concentration of 250,000 cells/mL. Fifty microliters of cells were plated in 384 well black clear-bottomed plates. Plates were incubated at 37° C., 5% CO2 overnight. On day two, plates were centrifuged and 50 nL of compound or controls were added to the cells. Plates were then incubated at 37° C., 5% CO2 for 48 hours. On day four, medium was aspirated from the plate and crude cell lysates were made by adding 13 uL of 1× Cell Signaling Technologies lysis buffer with 1 Complete, Mini, EDTA-free Protease Inhibitor Tablet (Roche) for each 10 mL of lysis buffer. After lysis plates were incubated for 20 minutes at room temperature. Two microliters of lysate were removed for use in Cell Titer Glo assay (Promega) and MTT cocktail was prepared (Prochaska et. al. 1998) for measurement of NQO1 activity. Fifty microliters of MTT cocktail is added to each well, plate is centrifuged, and analyzed on an Envision plate reader (Perkin Elmer) using Absorbance 570 nm label for 30 minutes. Product formation was measured kinetically and the pEC50 of NQO1 specific activity induction was calculated by plotting the change in absorbance (Delta OD/min) versus the log of compound concentration followed by 3-parameter fitting.
pEC50 is the negative log of the EC50.
EC50s<1 nM (+++++), EC50s 1 nM-10 nM (++++), EC50s 10 nM-100 nM (+++), EC50s 100 nM-1 uM (++), EC50s 1 uM-10 uM (+), EC50s>10 uM (−), or were not determined (ND).
`CC[C@@H]1CN(Cc2cc([C@@H](CC(=O)O)c3ccc4c(nnn4CC)c3C)sc2Cl)S(=O)(=O)c2cnccc2O1` [Example 1, (S)-3-(5-Chloro-4-(((R)-4-ethyl-1,1-dioxido-3,4-dihydro-2H-pyrido[4,3-b][1,4,5]oxathiazepin-2-yl)methyl)thiophen-2-yl)-3-(1-ethyl-4-methyl-1H-benzo[d][1,2,3]triazol-5-yl)propanoic acid]: the concentration for a half-maximal effect (EC50) was in the range of 0.1 to 1 µM.
Take `CC[C@@H]1CN(Cc2cc([C@@H](CC(=O)O)c3ccc4c(nnn4CC)c3C)sc2Cl)S(=O)(=O)c2cccnc2O1` [Example 2, (S)-3-(5-Chloro-4-(((R)-4-ethyl-1,1-dioxido-3,4-dihydro-2H-pyrido[2,3-b][1,4,5]oxathiazepin-2-yl)methyl)thiophen-2-yl)-3-(1-ethyl-4-methyl-1H-benzo[d][1,2,3]triazol-5-yl)propanoic acid]: the concentration giving a half-maximal response (EC50) is 1 to 10 µM.
`CC[C@@H]1CN(Cc2cc([C@@H](c3ccc4c(nnn4CC)c3C)C(C)(C)C(=O)O)sc2Cl)S(=O)(=O)c2ccccc2O1` [Example 3, (S)-3-(5-Chloro-4-(((R)-4-ethyl-1,1-dioxido-3,4-dihydro-2H-benzo[b][1,4,5]oxathiazepin-2-yl)methyl)thiophen-2-yl)-3-(1-ethyl-4-methyl-1H-benzo[d][1,2,3]triazol-5-yl)-2,2-dimethylpropanoic acid]: the EC50 was below 0.001 µM.
Same read-out and setting: under `CC[C@@H]1CN(Cc2cc([C@H](c3ccc4c(nnn4CC)c3C)C(C)(C)C(=O)O)sc2Cl)S(=O)(=O)c2ccccc2O1` [Example 4, (R)-3-(5-Chloro-4-(((R)-4-ethyl-1,1-dioxido-3,4-dihydro-2H-benzo[b][1,4,5]oxathiazepin-2-yl)methyl)thiophen-2-yl)-3-(1-ethyl-4-methyl-1H-benzo[d][1,2,3]triazol-5-yl)-2,2-dimethylpropanoic acid] stands 0.1 to 1 µM; under `CC[C@@H]1CN(Cc2cc([C@H](CC(=O)O)c3ccc4c(nnn4CC)c3C)sc2Cl)S(=O)(=O)c2ccccc2O1` [Example 5, (R)-3-(5-Chloro-4-(((R)-4-ethyl-1,1-dioxido-3,4-dihydro-2H-benzo[b][1,4,5]oxathiazepin-2-yl)methyl)thiophen-2-yl)-3-(1-ethyl-4-methyl-1H-benzo[d][1,2,3]triazol-5-yl)propanoic acid], 0.01 to 0.1 µM; under `CC[C@@H]1CN(Cc2cc([C@H](CC(=O)O)c3ccc4c(nnn4CC)c3C)sc2Cl)S(=O)(=O)c2cccnc2O1` [Example 6, (R)-3-(5-Chloro-4-(((R)-4-ethyl-1,1-dioxido-3,4-dihydro-2H-pyrido[2,3-b][1,4,5]oxathiazepin-2-yl)methyl)thiophen-2-yl)-3-(1-ethyl-4-methyl-1H-benzo[d][1,2,3]triazol-5-yl)propanoic acid], 0.01 to 0.1 µM.
In the case of `CC[C@@H]1CN(Cc2cc([C@@H](c3ccc4c(nnn4CC)c3C)C(C)(C)C(=O)O)sc2C)S(=O)(=O)c2cccnc2O1` [Example 7, (S)-3-(4-(((R)-4-Ethyl-1,1-dioxido-3,4-dihydro-2H-pyrido[2,3-b][1,4,5]oxathiazepin-2-yl)methyl)-5-methylthiophen-2-yl)-3-(1-ethyl-4-methyl-1H-benzo[d][1,2,3]triazol-5-yl)-2,2-dimethylpropanoic acid], the concentration giving a half-maximal response (EC50) was below 0.001 µM.
Turning to `CCn1nnc2c(C)c([C@H](c3cc(CN4CC(C)(C)Oc5ncccc5S4(=O)=O)c(C)s3)C(C)(C)C(=O)O)ccc21` [Example 8, (S)-3-(4-((4,4-Dimethyl-1,1-dioxido-3,4-dihydro-2H-pyrido[2,3-b][1,4,5]oxathiazepin-2-yl)methyl)-5-methylthiophen-2-yl)-3-(1-ethyl-4-methyl-1H-benzo[d][1,2,3]triazol-5-yl)-2,2-dimethylpropanoic Acid], the concentration for a half-maximal effect (EC50) fell in the range of 0.001 to 0.01 µM.
Take `CC[C@@H]1CN(Cc2cc([C@@H](c3ccc4c(nnn4CC)c3C)C(C)(C)C(=O)O)sc2C)S(=O)(=O)c2cnccc2O1` [Example 9, (S)-3-(4-(((R)-4-Ethyl-1,1-dioxido-3,4-dihydro-2H-pyrido[4,3-b][1,4,5]oxathiazepin-2-yl)methyl)-5-methylthiophen-2-yl)-3-(1-ethyl-4-methyl-1H-benzo[d][1,2,3]triazol-5-yl)-2,2-dimethylpropanoic Acid]: the EC50 was below 0.001 µM.
With `CC[C@@H]1CN(Cc2cc([C@@H](c3ccc4c(nnn4CC)c3C)C(C)(C)C(=O)O)sc2C)S(=O)(=O)c2ccccc2O1` [Example 10, (S)-3-(4-(((R)-4-Ethyl-1,1-dioxido-3,4-dihydro-2H-benzo[b][1,4,5]oxathiazepin-2-yl)methyl)-5-methylthiophen-2-yl)-3-(1-ethyl-4-methyl-1H-benzo[d][1,2,3]triazol-5-yl)-2,2-dimethylpropanoic Acid], the concentration giving a half-maximal response (EC50) is below 0.001 µM.
In the case of `CC[C@@H]1CN(Cc2cc([C@H](c3ccc4c(nnn4CC)c3C)C(C)(C)C(=O)O)sc2C)S(=O)(=O)c2ccccc2O1` [Example 11, (R)-3-(4-(((R)-4-Ethyl-1,1-dioxido-3,4-dihydro-2H-benzo[b][1,4,5]oxathiazepin-2-yl)methyl)-5-methylthiophen-2-yl)-3-(1-ethyl-4-methyl-1H-benzo[d][1,2,3]triazol-5-yl)-2,2-dimethylpropanoic Acid], the EC50 is 0.01 to 0.1 µM.
For the molecule `CCC1CCN(Cc2nccn2Cc2cc([C@@H](c3ccc4c(nnn4CC)c3C)C(C)(C)C(=O)O)sc2C)CC1` [Example 12, (S)-3-(1-Ethyl-4-methyl-1H-benzo[d][1,2,3]triazol-5-yl)-3-(4-((2-((4-ethylpiperidin-1-yl)methyl)-1H-imidazol-1-yl)methyl)-5-methylthiophen-2-yl)-2,2-dimethylpropanoic acid], the EC50 was 0.001 to 0.01 µM.
Turning to `CCn1nnc2c(C)c([C@H](c3cc(CN4CC(=O)N(C)CC(C)(C)C4)c(C)s3)C(C)(C)C(=O)O)ccc21` [Example 15, (S)-3-(1-Ethyl-4-methyl-1H-benzo[d][1,2,3]triazol-5-yl)-2,2-dimethyl-3-(5-methyl-4-((4,6,6-trimethyl-3-oxo-1,4-diazepan-1-yl)methyl)thiophen-2-yl)propanoic Acid], the half-maximal effective concentration (EC50) lay in the range of 0.001 to 0.01 µM.
Same read-out and setting: under `CCn1nnc2c(C)c([C@H](c3cc(CN4C[C@H](C)Cc5ncccc5S4(=O)=O)c(C)s3)C(C)(C)C(=O)O)ccc21` [Example 16, (S)-3-(1-Ethyl-4-methyl-1H-benzo[d][1,2,3]triazol-5-yl)-2,2-dimethyl-3-(5-methyl-4-(((R)-4-methyl-1,1-dioxido-4,5-dihydropyrido[2,3-f][1,2]thiazepin-2(3H)-yl)methyl)thiophen-2-yl)propanoic Acid] stands 0.001 to 0.01 µM.

Staying with this test, now noted: NQO1 specific activity induction, 48 hours with compound.
`CC[C@@H]1CN(Cc2nc(C(c3ccc4c(nnn4CC)c3C)C(C)(C)C(=O)O)sc2C)S(=O)(=O)c2ccccc2O1` (single isomer, unassigned; isomer 1) [Example 13, (R or S)-3-(4-(((R)-4-Ethyl-1,1-dioxido-3,4-dihydro-2H-benzo[b][1,4,5]oxathiazepin-2-yl)methyl)-5-methylthiazol-2-yl)-3-(1-ethyl-4-methyl-1H-benzo[d][1,2,3]triazol-5-yl)-2,2-dimethylpropanoic Acid Isomer 1]: the 50% effective concentration (EC50) lay in the range of 0.001 to 0.01 µM.
In the case of `CC[C@@H]1CN(Cc2cc(C(CC(=O)O)c3ccc4c(nnn4CC)c3C)sc2C)S(=O)(=O)c2ccccc2O1` (single isomer, unassigned; isomer 1) [Example 20, (R or S)-3-(4-(((R)-4-Ethyl-1,1-dioxido-3,4-dihydro-2H-benzo[b][1,4,5]oxathiazepin-2-yl)methyl)-5-methylthiophen-2-yl)-3-(1-ethyl-4-methyl-1H-benzo[d][1,2,3]triazol-5-yl)propanoic acid Isomer 1], the EC50 was in the range of 0.01 to 0.1 µM.
With `CC[C@@H]1CN(Cc2nc(C(c3ccc4c(nnn4CC)c3C)C(C)(C)C(=O)O)sc2C)S(=O)(=O)c2ccccc2O1` (single isomer, unassigned; isomer 2) [Example 14, (R or S)-3-(4-(((R)-4-Ethyl-1,1-dioxido-3,4-dihydro-2H-benzo[b][1,4,5]oxathiazepin-2-yl)methyl)-5-methylthiazol-2-yl)-3-(1-ethyl-4-methyl-1H-benzo[d][1,2,3]triazol-5-yl)-2,2-dimethylpropanoic Acid Isomer 2], the EC50 is 0.01 to 0.1 µM.
For `CC[C@@H]1CN(Cc2cc(C(CC(=O)O)c3ccc4c(nnn4CC)c3C)sc2C)S(=O)(=O)c2ccccc2O1` (single isomer, unassigned; isomer 2) [Example 21, (R or S)-3-(4-(((R)-4-Ethyl-1,1-dioxido-3,4-dihydro-2H-benzo[b][1,4,5]oxathiazepin-2-yl)methyl)-5-methylthiophen-2-yl)-3-(1-ethyl-4-methyl-1H-benzo[d][1,2,3]triazol-5-yl)propanoic Acid Isomer 2], the half-maximal effective concentration (EC50) is 0.1 to 1 µM.
